Assay results from publication doi:10.1101/2020.03.31.018853v1 (biorxiv, 2020).

Molecular target: T1, GtCPES (Guillardia theta, UniProt L1JFC7, M146A)
T1 sequence (L1JFC7 80-253 M146A): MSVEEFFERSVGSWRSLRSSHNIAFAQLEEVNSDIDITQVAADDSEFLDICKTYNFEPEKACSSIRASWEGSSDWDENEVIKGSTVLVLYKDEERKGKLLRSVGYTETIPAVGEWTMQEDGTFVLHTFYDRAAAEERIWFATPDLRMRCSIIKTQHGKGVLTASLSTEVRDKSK
Assay: UV-Vis absorbance titration
Type: binding

C/C=C1/C(=C/c2[nH]c(/C=C3N=C(/C=C4\NC(=O)C(CC)=C4C)C(C)=C\3CCC(=O)O)c(CCC(=O)O)c2C)NC(=O)[C@@H]1C [3(E)-PCB]
Kd: 7 ± 0.4 µM
